Data published in US6651382B1, “Method for preventing the release of gramineous plant pollens” (National Agricultural Research Organization, priority 1999, dated 2003).

Tested on: flowering barley line derived from a barley line "Satsuki-Nijo"
Assay: Flowering inhibition test on harvested unflowered barley ears treated with reagent solution
Assay type: in vivo
Description: A flowering barley line derived from a barley line “Satsuki-Nijo” was conventionally cultivated in the fields. At the earing time, unflowered ears immediately after earing were harvested. Each group of three ears was then treated with 10 cc reagent solution containing 1-100 ppm methyl jasmonate as a jasmonic acid derivative in an artificial climate chamber under the following conditions: in the light having a brightness of 120 […] for 14 hours at 25° C.; and in the dark for 10 hours at 15° C.
Flowered ears were transferred to a culture medium for cuttings and cultivated for about 20 days. The number of anthers remaining in a glumaceous flower after self-pollination was measured and used as a control.

[1] = Table 2 (repeated test), reagent concentration 1 ppm
[2] = Table 2 (repeated test), reagent concentration 10 ppm
[3] = Table 2 (repeated test), reagent concentration 100 ppm

CC/C=C\CC1C(=O)CCC1CC(=O)OC (stereo not drawn) [Methyl jasmonate, methyl jasmonate]
Number of remaining anthers per one glumaceous flower (Table 1, reagent concentration 1 ppm, after self-pollination): 0.7 | Number of flowered ears on the 6th day (Table 1, reagent concentration 1 ppm, group of three ears, 10 cc solution): 3 | Number of remaining anthers per one glumaceous flower (Table 1, reagent concentration 10 ppm, after self-pollination): 1.7 | Number of remaining anthers per one glumaceous flower (Table 1, reagent concentration 10 ppm, after self-pollination, listed as methyl jasmonate): more anthers than non-treated ears | Number of flowered ears on the 6th day (Table 1, reagent concentration 10 ppm, group of three ears, 10 cc solution): 3 | Number of remaining anthers per one glumaceous flower (Table 1, reagent concentration 100 ppm, after self-pollination): 2.1 | Number of remaining anthers per one glumaceous flower (Table 1, reagent concentration 100 ppm, after self-pollination, listed as methyl jasmonate): many more remaining anthers | Number of flowered ears on the 6th day (Table 1, reagent concentration 100 ppm, group of three ears, 10 cc solution): 0 | Number of flowered ears on the 6th day (Table 1, reagent concentration 100 ppm, group of three ears, 10 cc solution, listed as methyl jasmonate): no flowering was observed | Number of flowered ears on the 6th day [1]: 3 | Number of remaining anthers per one glumaceous flower [1]: 1.1 | Number of flowered ears on the 6th day [2]: 3 | Number of remaining anthers per one glumaceous flower [2]: 1.7 | Number of flowered ears on the 6th day [3]: 0 | Number of remaining anthers per one glumaceous flower [3]: 2.6
